Data reported in ChEMBL document CHEMBL1137332, “Crystal structures of human adenosine kinase inhibitor complexes reveal two distinct binding modes” (J Med Chem, 2006).
pIC50: −log10 of the molar value.

These molecules were tested against Adenosine kinase (Homo sapiens, UniProt P55263) (assay: Inhibition of human cytosolic AK).
Sequence of Adenosine kinase (P55263 whole entry): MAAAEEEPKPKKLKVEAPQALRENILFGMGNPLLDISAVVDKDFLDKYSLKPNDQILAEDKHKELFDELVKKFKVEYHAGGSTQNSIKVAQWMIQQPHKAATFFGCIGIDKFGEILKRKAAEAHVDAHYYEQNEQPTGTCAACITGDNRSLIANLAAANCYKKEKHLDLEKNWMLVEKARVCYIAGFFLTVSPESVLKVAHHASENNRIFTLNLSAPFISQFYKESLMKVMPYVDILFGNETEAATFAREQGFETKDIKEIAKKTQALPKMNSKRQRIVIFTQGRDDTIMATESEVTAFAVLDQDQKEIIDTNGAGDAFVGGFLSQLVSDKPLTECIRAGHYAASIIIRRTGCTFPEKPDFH

SMILES | pIC50
Nc1cc(C#Cc2ccc(N3CCOCC3)nc2)ncn1 | 6.92
Nc1ncnc(C#Cc2ccc(N3CCOCC3)nc2)c1Cc1ccccc1 | 7.40
Nc1ncnc(C#Cc2ccc(N3CCOCC3)nc2)c1CCCc1ccccc1 | 8.60
CN(C)c1ccc(-c2c(N)ncnc2C#Cc2ccc(N3CCOCC3)nc2)cc1 | 7.17
CN(C)c1ccc(C#Cc2ncnc(N)c2-c2ccccc2)cc1 | 7.70
Cc1nc(N)c(-c2ccccc2)c(C#Cc2ccc(N(C)C)cc2)n1 | < 6.00
CN(C)c1ccc(C#Cc2ncnc(N)c2-c2ccc3c(c2)OCO3)cc1 | 8.05
